Experimental data as given in patent publication US7479507B2, “Anti-inflammatory substituted phenols and elastomeric compositions for oral delivery of drugs” (priority 2003, dated 2009).

Assays:
[1] = test system: rat; details: cited from earlier work
[2] = test system: Chinese hamster; details: cited from earlier work
[3] = test system: rats; details: >2.35 mg/l air aerosol, mostly (~80%) particles smaller than 7 μm; cited from earlier work
[4] = test system: dogs diagnosed with arthritis or chronic or degenerative joint disease; assay: Owner-reported mobility of dogs with arthritis or chronic or degenerative joint disease, daily oral dosing, placebo-controlled; format: in vivo, dog
Protocol: The experiments below were performed on dogs after the informed consent of their owners was obtained. […] The specified compound was administered orally once a day with the dog's meal. […] The owners reported weekly any change in the ability of their dog to stand up, walk, run, climb and descend stairs, get on and off a bed, sofa, or chair, get into and out of a car, their limping and behavior.

[5] = test system: rat; details: cited from earlier work; remark: listed apart in the source
[6] = test system: carp; details: 0.3-3 ppm; cited from earlier work

In the case of “calcium salt of the monoethyl ester of (((3,5-bis(1,1-dimethylethyl)-4-hydroxyphenyl)methyl) phosphonic acid [Compound 1]”, the “intraperitoneal LD50” value [1] is listed as 662 mg/kg, the “oral LD50” value [2] is listed as “exceeds 2000 mg/kg” and the “deaths after 4 hour inhalation” value [3] is listed as “no deaths”. The “change in dog's condition” value ([4]; Example 7, 33 lb Kelpie-mix, about 10 mg daily oral capsule, 4th week) was “condition continued to improve”, the “change in dog's condition” value ([4]; Example 7, 33 lb Kelpie-mix, about 10 mg daily oral capsule, after 2 weeks) was “moved smoothly, had less difficulty getting out of the car or off the sofa, ran better and more often, and was more active” and the “change in dog's condition” value ([4]; Example 7, 33 lb Kelpie-mix, about 10 mg daily oral capsule, after 3 weeks) was “freely getting off the bed, down from the sofa and out of the car”. For the same compound, the “change in dog's condition” value ([4]; Example 7, 33 lb Kelpie-mix, arthritis of shoulders and elbow, about 10 mg daily oral capsule, after 1 week) was “got down the sofa and out of the car more easily”, the “change in dog's condition” value ([4]; Example 8, 13 lb miniature Poodle, about 10 mg daily oral capsule, after 3 weeks) was “ran frequently and jumped up on the sofa without hesitation” and the “change in dog's condition” value ([4]; Example 8, 13 lb miniature Poodle, about 10 mg daily oral capsule, after 4 weeks) was “climbing and running freely”. The “change in dog's condition” value ([4]; Example 8, 13 lb miniature Poodle, unknown disease, about 10 mg daily oral capsule, after two weeks) was “climbed stairs with less hesitation and ran occasionally”, the “change in dog's condition” value ([4]; Example 9, 85 lb Labrador retriever, about 15 mg Compound 1 daily capsule and Rimadyl, after 1 week) was “stood up without assistance and limped less” and the “change in dog's condition” value ([4]; Example 9, 85 lb Labrador retriever, about 15 mg Compound 1 daily capsule and Rimadyl, after 3 weeks) was “started to move faster, then to run”. The “change in dog's condition” value ([4]; Example 9, 85 lb Labrador retriever, about 15 mg Compound 1 daily capsule and Rimadyl, after two weeks) was “moved faster and was not bothered by its hips”, the “change in dog's condition” value ([4]; Example 9, 85 lb Labrador retriever, about 15 mg Compound 1 daily capsule, Rimadyl discontinued, 4th week) was “got up and moved rapidly with ease and it's running improved” and the “change in dog's condition” value ([4]; Example 11, 62 lb Australian cattle dog, about 10 mg Compound 1 daily capsule, after 2 weeks) was “stood well, limped less, and climbed the 3 stairs to and from the house”. The “change in dog's condition” value ([4]; Example 11, 62 lb Australian cattle dog, about 10 mg Compound 1 daily capsule, after 3 weeks) was “trotted and climbed 5 stairs”, the “change in dog's condition” value ([4]; Example 11, 62 lb Australian cattle dog, about 10 mg Compound 1 daily capsule, after 4 weeks) was “condition was further improved” and the “change in dog's condition” value ([4]; Example 11, 62 lb Australian cattle dog, after 5 months untreated, about 10 mg Compound 1 daily capsule, after one week) was “stood longer, walked, and enjoyed the outdoors”. The “number of dogs for which improvement was evident” value ([4]; of 5 dogs given Compound 1) was 4 dogs, the “oral LD50” value [5] was “exceeds 6000 mg/kg” and the “bioconcentration (accumulation)” value [6] was “No bioconcentration (accumulation) was detected”.

With `CC(C(=O)O)c1ccc2c(c1)[nH]c1ccc(Cl)cc12` (stereo not shown) [Rimadyl®, reference compound] the “change in dog's condition” value ([4]; Example 9, 85 lb Labrador retriever, arthritis of the hips, Rimadyl alone before Compound 1) was “slightly improved the dog's condition”.
